US20240391948A1, “NOVEL COMPOUND THAT INHIBITS TNF-ALPHA GENERATION AND INFLAMMASOME ACTIVITY AND PREPARATION METHOD THEREFOR” (SHAPERON INC., priority 2021, published 2024)

What was measured:
Assay type in all cases: cell-based
[1] = test system: J774A.1 (Mouse BALB/c monocyte macrophage cell line) cells; assay: LPS+ATP-induced IL-1β secretion inhibition in J774A.1 cells; conditions: J774.A1, 1 μM compound, graded compared to taurodeoxycholic acid (positive control), read-out: IL-1β production inhibition grade
Procedure, shortened: (§1)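 Mouse J774A.1 macrophages treated with 1 μM compound; TNF-α secretion measured after LPS stimulation and IL-1β secretion after LPS+ATP stimulation. Suppression graded against taurodeoxycholic acid: A over 100%, B 50–100%, C 20–50%, D under 20%.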

[2] = test system: J774A.1 (Mouse BALB/c monocyte macrophage cell line) cells; assay: LPS-induced TNF-α secretion inhibition in J774A.1 cells; conditions: J774.A1, 1 μM compound, graded compared to taurodeoxycholic acid (positive control), read-out: TNF-α production inhibition grade
Procedure, shortened: as §1

[3] = test system: U937 cells (human monocytic cell line); assay: BzATP-induced IL-1β secretion inhibition in PMA-differentiated U937 cells; conditions: U-937, U937 cells differentiated with PMA, read-out: IL-1β production inhibition grade (IC50)
Procedure, shortened: (§2)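 U937 cells were PMA-differentiated into macrophages and treated with compound before inflammatory stimulus. TNF-α secretion was induced with Pam2CSK4 and IL-1β secretion with BzATP. IC50 (μM) values are graded A-D, with separate cut-offs per cytokine.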

[4] = test system: U937 cells (human monocytic cell line); assay: Pam2CSK4-induced TNF-α secretion inhibition in PMA-differentiated U937 cells; conditions: U-937, U937 cells differentiated with PMA, read-out: TNF-α production inhibition grade (IC50)
Procedure, shortened: as §2

Structure (SMILES)	inhibition at 1 µM [1] [%]	inhibition at 1 µM [2] [%]	IC50 [3] [µM]	IC50 [4] [µM]
C[C@H](CCC(=O)NC[C@H](C)S(=O)(=O)O)[C@H]1CC[C@H]2[C@@H]3CC[C@@H]4C[C@H](O)CC[C@]4(C)[C@H]3C[C@H](O)[C@]12C [NC10038]	50 to 100	< 20	0.05 to 0.1	≥ 2
C[C@H](CCC(=O)N(CCS(=O)(=O)O)Cc1ccccc1)[C@H]1CC[C@H]2[C@@H]3CC[C@@H]4C[C@H](O)CC[C@]4(C)[C@H]3CC[C@]12C [NC10056]	50 to 100	20 to 50	0.05 to 0.1	≥ 2
CC(C)C[C@H](CS(=O)(=O)O)NC(=O)CC[C@@H](C)[C@H]1CC[C@H]2[C@@H]3CC[C@@H]4CC(=O)CC[C@]4(C)[C@H]3CC[C@]12C [NC30031]	20 to 50	< 20	≥ 0.2	0.5 to 1
C[C@H](CCC(=O)N[C@H](CO)CS(=O)(=O)O)[C@H]1CC[C@H]2[C@@H]3CC[C@@H]4CC(=O)CC[C@]4(C)[C@H]3CC[C@]12C [NC30025]	< 20	> 100	≥ 0.2	1 to 2
C[C@H](CCC(=O)N(CCS(=O)(=O)O)C1CCCCC1)[C@H]1CC[C@H]2[C@@H]3CC[C@@H]4C[C@H](O)CC[C@]4(C)[C@H]3CC[C@]12C [NC10016]	> 100	> 100	< 0.05	< 0.5
C[C@H](CCC(=O)N[C@H](c1ccccc1)[C@H](C)S(=O)(=O)O)[C@H]1CC[C@H]2[C@@H]3CC[C@@H]4C[C@H](O)CC[C@]4(C)[C@H]3CC[C@]12C [NC10070]	> 100	50 to 100	< 0.05	< 0.5
C[C@H](CCC(=O)N[C@@H]1CCCC[C@@H]1S(=O)(=O)O)[C@H]1CC[C@H]2[C@@H]3CC[C@@H]4C[C@H](O)CC[C@]4(C)[C@H]3CC[C@]12C [NC10082]	> 100	> 100	< 0.05	< 0.5
C[C@H](CCC(=O)N[C@H](CO)CS(=O)(=O)O)[C@H]1CC[C@H]2[C@@H]3[C@H](O)C[C@@H]4C[C@H](O)CC[C@]4(C)[C@H]3C[C@H](O)[C@]12C [NC20025]	< 20	< 20	≥ 0.2	≥ 2
CC[C@H]1[C@@H](O)[C@@H]2[C@H](C[C@H](O)[C@]3(C)[C@@H]([C@H](C)CCC(=O)N[C@@H](C)CS(=O)(=O)O)CC[C@@H]23)[C@@]2(C)CC[C@@H](O)C[C@@H]12 [NC50028]	50 to 100	< 20	≥ 0.2	1 to 2
CC[C@H]1[C@@H](O)[C@@H]2[C@H](C[C@H](O)[C@]3(C)[C@@H]([C@H](C)CCC(=O)N[C@H](Cc4ccccc4)CS(=O)(=O)O)CC[C@@H]23)[C@@]2(C)CC[C@@H](O)C[C@@H]12 [NC50015]	> 100	< 20	0.05 to 0.1	1 to 2
CC[C@H]1[C@@H](O)[C@@H]2[C@H](CC[C@]3(C)[C@@H]([C@H](C)CCC(=O)N4CC(S(=O)(=O)O)C4)CC[C@@H]23)[C@@]2(C)CC[C@@H](O)C[C@@H]12 [NC40012]	50 to 100	< 20	≥ 0.2	0.5 to 1
C[C@H](CCC(=O)N1CCC[C@@H]1CS(=O)(=O)O)[C@H]1CC[C@H]2[C@@H]3[C@H](O)C[C@@H]4C[C@H](O)CC[C@]4(C)[C@H]3C[C@H](O)[C@]12C [NC20020]	20 to 50	50 to 100	< 0.05	≥ 2
CC[C@H]1[C@@H](O)[C@@H]2[C@H](C[C@H](O)[C@]3(C)[C@@H]([C@H](C)CCC(=O)N4CCC[C@@H](S(=O)(=O)O)C4)CC[C@@H]23)[C@@]2(C)CC[C@@H](O)C[C@@H]12 [NC50010]	> 100	< 20	0.1 to 0.2	≥ 2
CC[C@H]1[C@@H](O)[C@@H]2[C@H](C[C@H](O)[C@]3(C)[C@@H]([C@H](C)CCC(=O)N(C)CCS(=O)(=O)O)CC[C@@H]23)[C@@]2(C)CC[C@@H](O)C[C@@H]12 [NC50004]	< 20	< 20	0.1 to 0.2	≥ 2
CC[C@H]1[C@@H](O)[C@@H]2[C@H](CC[C@]3(C)[C@@H]([C@H](C)CCC(=O)N(CCS(=O)(=O)O)C(C)C)CC[C@@H]23)[C@@]2(C)CC[C@@H](O)C[C@@H]12 [NC40007]	50 to 100	< 20	≥ 0.2	1 to 2
C[C@H](CCC(=O)N[C@@H](CS(=O)(=O)O)c1ccccc1)[C@H]1CC[C@H]2[C@@H]3CC[C@@H]4CC(=O)CC[C@]4(C)[C@H]3CC[C@]12C [NC30019]	< 20	< 20	≥ 0.2	1 to 2
CC[C@H]1[C@@H](O)[C@@H]2[C@H](C[C@H](O)[C@]3(C)[C@@H]([C@H](C)CCC(=O)NC(C)(C)CS(=O)(=O)O)CC[C@@H]23)[C@@]2(C)CC[C@@H](O)C[C@@H]12 [NC50013]	> 100	< 20	< 0.05	1 to 2
C[C@H](CCC(=O)N[C@@H](C)CS(=O)(=O)O)[C@H]1CC[C@H]2[C@@H]3[C@H](O)C[C@@H]4C[C@H](O)CC[C@]4(C)[C@H]3C[C@H](O)[C@]12C [NC20028]	< 20	< 20	≥ 0.2	1 to 2
CC[C@H]1[C@@H](O)[C@@H]2[C@H](CC[C@]3(C)[C@@H]([C@H](C)CCC(=O)N4CC[C@H](S(=O)(=O)O)C4)CC[C@@H]23)[C@@]2(C)CC[C@@H](O)C[C@@H]12 [NC40033]	> 100	> 100	< 0.05	< 0.5
C[C@H](CCC(=O)NCCC(=O)O)[C@H]1CC[C@H]2[C@@H]3CC[C@@H]4C[C@H](O)CC[C@]4(C)[C@H]3CC[C@]12C [NC10053]	50 to 100	50 to 100	0.05 to 0.1	1 to 2
C[C@H](CCC(=O)N1CCC[C@H]1CS(=O)(=O)O)[C@H]1CC[C@H]2[C@@H]3CC[C@@H]4C[C@H](O)CC[C@]4(C)[C@H]3C[C@H](O)[C@]12C [NC10037]	50 to 100	< 20	≥ 0.2	< 0.5
C[C@H](CCC(=O)N[C@H]1CCCC[C@H]1S(=O)(=O)O)[C@H]1CC[C@H]2[C@@H]3CC[C@@H]4C[C@H](O)CC[C@]4(C)[C@H]3C[C@H](O)[C@]12C [NC10042]	< 20	< 20	≥ 0.2	0.5 to 1
C[C@H](CCC(=O)N(CCO)CCS(=O)(=O)O)[C@H]1CC[C@H]2[C@@H]3CC[C@@H]4CC(=O)CC[C@]4(C)[C@H]3CC[C@]12C [NC30006]	< 20	< 20	≥ 0.2	0.5 to 1
C[C@H](CCC(=O)N(CCN(C)C)CCS(=O)(=O)O)[C@H]1CC[C@H]2[C@@H]3[C@H](O)C[C@@H]4C[C@H](O)CC[C@]4(C)[C@H]3C[C@H](O)[C@]12C [NC20035]	< 20	< 20	0.05 to 0.1	1 to 2
C[C@H](CCC(=O)N(CCS(=O)(=O)O)c1ccccc1)[C@H]1CC[C@H]2[C@@H]3CC[C@@H]4CC(=O)CC[C@]4(C)[C@H]3CC[C@]12C [NC30037]	> 100	20 to 50	< 0.05	≥ 2
C[C@H](CCC(=O)N1CC[C@@H](S(=O)(=O)O)C1)[C@H]1CC[C@H]2[C@@H]3CC[C@@H]4C[C@H](O)CC[C@]4(C)[C@H]3C[C@H](O)[C@]12C [NC10049]	> 100	< 20	< 0.05	< 0.5
C[C@H](CCC(=O)N1CCC[C@@H](S(=O)(=O)O)C1)[C@H]1CC[C@H]2[C@@H]3CC[C@@H]4C[C@H](O)CC[C@]4(C)[C@H]3C[C@H](O)[C@]12C [NC10027]	> 100	< 20	< 0.05	0.5 to 1
C[C@H](CCC(=O)N[C@H](Cc1ccccc1)CS(=O)(=O)O)[C@H]1CC[C@H]2[C@@H]3[C@H](O)C[C@@H]4C[C@H](O)CC[C@]4(C)[C@H]3C[C@H](O)[C@]12C [NC20015]	> 100	< 20	< 0.05	< 0.5
C[C@H](CCC(=O)N1CCC(CCS(=O)(=O)O)CC1)[C@H]1CC[C@H]2[C@@H]3CC[C@@H]4C[C@H](O)CC[C@]4(C)[C@H]3CC[C@]12C [NC10012]	> 100	> 100	< 0.05	< 0.5
